Data published in US11419336B2, “Herbicidal combination” (UPL LTD, priority 2017, dated 2022).

Assays:
Cyperus rotundus = experiment: Field trial, burndown weed control on sedges; assay type: in vivo; conditions: g ai/ha: saflufenacil 140, metribuzin 1150, pendimethalin 500 alone, mixture 112 + 920 + 571
Procedure: Studies were conducted to compare the weed controlling activity of the combination of saflufenacil, a triazine herbicide and pendimethalin. […] Any difference between the observed and “expected” efficacy could be attributed to synergy between the compounds in the control of a broad spectrum of weeds. The expected efficacy of a combination of saflufenacil, a triazine herbicide and an pendimethalin was calculated using the well-established Colby method. […] An unexpected enhancement in efficacy of the combination is then determined by comparing the observed response of the combination to the expected (or predicted) response as calculated from the observed response of each Individual component alone. If the observed response of the combination is greater than the expected (or predicted) response, or stated conversely, if the difference between the observed and expected response is greater than zero, then the combination is said to be synergistic or unexpectedly effective. (Colby, S. R., Weeds, 1967(15), p. 20-22) The Colby method requires only a single dose of each herbicide applied alone and the mixture of both doses. The weed control activity of the individual herbicides of the invention and their combinations were evaluated on weeds such as those belonging to Echinochloa colona, Digitaria sanguinalis, Amaranthus viridis, Commelina benghalensis, and Cyperus rotundus. The trial was carried out in Randomized Complete Block (RCB) method. Each trial was replicated four times and conducted under GEP guidelines. Application volumes were varied for each mixture. Such field trials were carried out at various locations so as to generate independent data, the locations were chosen randomly across India. Saflufenacil, metribuzin and pendimethalin were sprayed according to their recommended dosage. The following formula was used to calculate the expected activity of mixtures containing three active ingredients, A, B and C: [formula] • Where A=observed efficacy of active ingredient A at the same concentration as used in the mixture. B=observed efficacy of active ingredient B at the same concentration as used in the mixture. C=observed efficacy of active ingredient C at the same concentration as Used in the mixture.

Digera sp. = experiment: Field trial, burndown weed control on broadleaf weeds; assay type: in vivo; conditions: g ai/ha: saflufenacil 140, metribuzin 1150, pendimethalin 500 alone, mixture 112 + 920 + 571
Procedure: (§1) Studies were conducted to compare the weed controlling activity of the combination of saflufenacil, a triazine herbicide and pendimethalin. […] Any difference between the observed and “expected” efficacy could be attributed to synergy between the compounds in the control of a broad spectrum of weeds. The expected efficacy of a combination of saflufenacil, a triazine herbicide and an pendimethalin was calculated using the well-established Colby method.
(§2) In the Colby method, the expected (or predicted) response of a combination of herbicides is calculated by taking the product of the observed response for each individual component of the combination when applied alone divided by 100 and subtracting this value from the sum of the observed response for each component when applied alone. An unexpected enhancement in efficacy of the combination is then determined by comparing the observed response of the combination to the expected (or predicted) response as calculated from the observed response of each Individual component alone. If the observed response of the combination is greater than the expected (or predicted) response, or stated conversely, if the difference between the observed and expected response is greater than zero, then the combination is said to be synergistic or unexpectedly effective. (Colby, S. R., Weeds, 1967(15), p. 20-22) The Colby method requires only a single dose of each herbicide applied alone and the mixture of both doses.
(§3) The weed control activity of the individual herbicides of the invention and their combinations were evaluated on weeds such as those belonging to Echinochloa colona, Digitaria sanguinalis, Amaranthus viridis, Commelina benghalensis, and Cyperus rotundus. The trial was carried out in Randomized Complete Block (RCB) method. Each trial was replicated four times and conducted under GEP guidelines. Application volumes were varied for each mixture. Such field trials were carried out at various locations so as to generate independent data, the locations were chosen randomly across India. Saflufenacil, metribuzin and pendimethalin were sprayed according to their recommended dosage.
(§4) The following formula was used to calculate the expected activity of mixtures containing three active ingredients, A, B and C:
(§5) A=observed efficacy of active ingredient A at the same concentration as used in the mixture.
(§6) B=observed efficacy of active ingredient B at the same concentration as used in the mixture.
(§7) C=observed efficacy of active ingredient C at the same concentration as Used in the mixture.

Eleucine indica [1] = experiment: Field trial, burndown weed control on grasses; assay type: in vivo; conditions: 15 DAA; g ai/ha: saflufenacil 140, metribuzin 1150, pendimethalin 500 alone; mixture 112 + 920 + 571
Eleucine indica [2] = experiment: Field trial, burndown weed control on grasses; assay type: in vivo; conditions: g ai/ha: saflufenacil 140, metribuzin 1150, pendimethalin 500 alone, mixture 140 + 1150 + 500
Procedure: as §1, §2, §3, §4, §5, §6, §7

Echinochloa colona = experiment: Field trial, burndown weed control on grasses; assay type: in vivo; conditions: g ai/ha: saflufenacil 140, metribuzin 1150, pendimethalin 500 alone
Procedure: as §1, §2, §3, §4, §5, §6, §7

Digitaria sanguinalis = experiment: Field trial, burndown weed control on grasses; assay type: in vivo; conditions: g ai/ha: saflufenacil 140, metribuzin 1150, pendimethalin 500 alone
Procedure: as §1, §2, §3, §4, §5, §6, §7

weeds = conditions: saflufenacil alone; cited from earlier work
[3] = 15 DAA, mixture 112 + 920 + 571
[4] = 15 DAA, mixture 140 + 1150 + 500
[5] = Table 3, 30 DAA, mixture 140 + 1150 + 500
[6] = Table 4, 30 DAA, mixture 140 + 1150 + 500

| SMILES | % Weed control Burn Down Symptoms Generation, Cyperus rotundus at 15 DAA, Actual (Cyperus rotundus) | % Weed control Burn Down Symptoms Generation, Cyperus rotundus at 30 DAA, Actual (Cyperus rotundus) | % Weed control Burn Down Symptoms Generation, Digera sp. at 15 DAA, Actual (Digera sp.) | % Weed control Burn Down Symptoms Generation, Digera sp. at 30 DAA, Actual (Digera sp.) | % Weed control Burn Down Symptoms Generation, Eleucine indica, Actual (Eleucine indica [1]) | % Weed control Burn Down Symptoms Generation, Eleucine indica, Actual (Eleucine indica [2]; 15 DAA) | % Weed control Burn Down Symptoms Generation, Eleucine indica, Actual (Eleucine indica [2]; Table 3, 30 DAA) | % Weed control Burn Down Symptoms Generation, Eleucine indica, Actual (Eleucine indica [2]; Table 4, 30 DAA) | % Weed control Burn Down Symptoms Generation, Echinochloa colona, Actual (Echinochloa colona; [3]) | % Weed control Burn Down Symptoms Generation, Echinochloa colona, Actual (Echinochloa colona; [4]) | % Weed control Burn Down Symptoms Generation, Echinochloa colona, Actual (Echinochloa colona; [5]) | % Weed control Burn Down Symptoms Generation, Echinochloa colona, Actual (Echinochloa colona; [6]) | % Weed control Burn Down Symptoms Generation, Digitaria sanguinalis, Actual (Digitaria sanguinalis; [3]) | % Weed control Burn Down Symptoms Generation, Digitaria sanguinalis, Actual (Digitaria sanguinalis; [4]) | % Weed control Burn Down Symptoms Generation, Digitaria sanguinalis, Actual (Digitaria sanguinalis; [5]) | % Weed control Burn Down Symptoms Generation, Digitaria sanguinalis, Actual (Digitaria sanguinalis; [6]) | Efficacy in weed control beyond 30 days after treatment (weeds) |
| --- | --- | --- | --- | --- | --- | --- | --- | --- | --- | --- | --- | --- | --- | --- | --- | --- | --- |
| CSc1nnc(C(C)(C)C)c(=O)n1N [Metribuzin, 4-amino-6-tert-butyl-4,5-dihydro-3-methylthio-1,2,4-triazin-5-one] | 6.7% | 8.3% | 8.3% | 8.3% | 8.3% | 8.3% | 5.7% | 5.7% | 6.7% | 6.7% | 10% | 10% | 13.3% | 13.3% | 10% | 10% | – |
| CCC(CC)Nc1c([N+](=O)[O-])cc(C)c(C)c1[N+](=O)[O-] [Pendimethalin, N-(1-ethylpropyl)-2,6-dinitro-3,4-xylidine] | 31.7% | 25% | 66.7% | 7.0% | 46.7% | 46.7% | 45% | 45% | 58.3% | 58.3% | 53.3% | 53.3% | 56.7% | 56.7% | 50% | 50% | – |
| CC(C)N(C)S(=O)(=O)NC(=O)c1cc(-n2c(=O)cc(C(F)(F)F)n(C)c2=O)c(F)cc1Cl [Saflufenacil, N′-{2-chloro-4-fluoro-5-[1,2,3,6-tetrahydro-3-methyl-2,6-dioxo-4-(trifluoromethyl)pyrimidin-1-yl]benzoyl}-N-isopropyl-N-methylsulfamide] | 15% | 20% | 69.7% | 68.3% | 13.3% | 13.3% | 9.3% | 9.3% | 8.3% | 8.3% | 13% | 13% | 56.7% | 56.7% | 13.3% | 13.3% | reduced efficacy |
